The target in this data set is T1, Solute carrier family 22 member 6 (Rattus norvegicus, UniProt O35956).
T1 sequence (O35956 whole entry): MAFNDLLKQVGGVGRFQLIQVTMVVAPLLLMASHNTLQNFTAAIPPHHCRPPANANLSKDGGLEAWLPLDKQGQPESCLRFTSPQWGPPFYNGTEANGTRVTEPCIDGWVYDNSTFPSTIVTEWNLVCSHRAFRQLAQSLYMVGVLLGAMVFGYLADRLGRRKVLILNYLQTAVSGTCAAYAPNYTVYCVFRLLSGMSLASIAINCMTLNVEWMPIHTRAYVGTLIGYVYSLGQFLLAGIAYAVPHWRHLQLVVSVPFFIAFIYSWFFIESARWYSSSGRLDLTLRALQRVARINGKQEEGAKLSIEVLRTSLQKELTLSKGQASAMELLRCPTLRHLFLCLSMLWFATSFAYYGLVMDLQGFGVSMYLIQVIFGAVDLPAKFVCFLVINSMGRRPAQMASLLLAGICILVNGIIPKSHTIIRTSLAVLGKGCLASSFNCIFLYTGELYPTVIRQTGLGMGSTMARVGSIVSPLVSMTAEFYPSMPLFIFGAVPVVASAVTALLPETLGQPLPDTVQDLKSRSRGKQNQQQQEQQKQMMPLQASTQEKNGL
In words: TP_TRANSPORTER: inhibition of MTX uptake in Xenopus laevis oocytes. Format: functional, cell-based, Oocyte. As to conditions: for Activity: xenopus laevis, oocyte.

pIC50, pKi: −log10 of the molar value.

These results are taken from ChEMBL document CHEMBL2073931, “Interaction between methotrexate and nonsteroidal anti-inflammatory drugs in organic anion transporter” (Eur J Pharmacol, 2000).

As a reminder, the pIC50 is the IC50 on a negative log10 scale, so that one unit is a factor of ten. A higher pIC50 goes with a small IC50. The pKi is −log10 of the Ki, conventionally taken in molar units. Read a high pKi as a low Ki.

As for `CC(C(=O)O)c1cccc(C(=O)c2ccccc2)c1` (centres undefined) [KETOPROFEN], the negative logarithm of the IC50 (pIC50) is 6.30.
Turning to `COc1ccc2c(c1)c(CC(=O)O)c(C)n2C(=O)c1ccc(Cl)cc1` [INDOMETHACIN], the pKi is 5.38.
Consider `O=C(O)c1ccccc1Nc1cccc(C(F)(F)F)c1` [FLUFENAMIC ACID], for which the Activity entry is “inhibitor [+]”.
On the same count and under the same terms, for `CCCCC1C(=O)N(c2ccccc2)N(c2ccccc2)C1=O` [PHENYLBUTAZONE] the value was “inhibitor [+]”.
